Where two headings read alike, the source gives them in different places.
Experiments:
[1] = tested on: noxious ischaemia to the tail of Sprague-Dawley rats; experiment: Nociception during noxious ischaemia of the rat tail (tourniquet, escape latency); format: in vivo; conditions: median (95% confidence interval), n=10, cut-off 30 min
Protocol: Sprague-Dawley rats (Rattus norvegicus) both genders weighing 250-450 g were used for nociceptive tests. The rats were housed individually at an ambient temperature of 21-23° C. on a 12-hour light; 12-hour dark cycle, and were allowed free access to standard rat chow and tap water. Groups of ten rats were used for each test. Rats were returned to stock, and in good health, after the tests.
Ischaemia was induced by applying an inflatable tourniquet to the base of the restrained rat's tail, as detailed previously (Gelgor et al., 1992). […] The time between application of the tourniquet and the escape response, that is the escape latency, is a measure of sensitivity to the noxious stimulus induced by ischaemia. To prevent tissue damage, the tourniquet was removed if the rat had not responded within 30 min.
(§1) The tail flick latency (mean of three measurements, 1 min apart) was measured and then the agent under test was administered. Thirty minutes later the tourniquet (or sham tourniquet) was applied and the escape latency measured. Immediately after release of the tourniquet, the tail flick latency was again measured, and the measurements were repeated after 30 and 60 min of reperfusion. Following inspection of the data at all three periods of reperfusion, the investigations elected to base their assessment of antihyperalgesic activity on data obtained immediately after release of the tourniquet.
Paracetamol, meloxicam and codeine phosphate were provided by the applicant. Codeine phosphate was dissolved in water. Meloxicam was dissolved in sunflower oil. Paracetamol was suspended in sunflower oil. All three agents were administered in boluses of 0.2 ml, and the paracetamol suspension was flushed with water. In control experiments, the appropriate vehicle (water, sunflower oil, or both) was administered.
Each agent was administered separately, at three doses, to determine the antinociceptve activity, if any, of each independently. Pairs of agents then were administered at three doses for each pair. Finally, the combination of the three agents was administered, at three doses. […]

[2] = tested on: reperfusion hyperalgesia of the tail of Sprague-Dawley rats; experiment: Reperfusion hyperalgesia of the rat tail following transient ischaemia (tail flick latency, antihyperalgesic index); format: in vivo; conditions: for ED50: Rattus norvegicus, read-out: ED50 (dose at which reperfusion hyperalgesia is reduced by 50%), agent separately
Protocol: Sprague-Dawley rats (Rattus norvegicus) both genders weighing 250-450 g were used for nociceptive tests. The rats were housed individually at an ambient temperature of 21-23° C. on a 12-hour light; 12-hour dark cycle, and were allowed free access to standard rat chow and tap water. Groups of ten rats were used for each test.
The response of the rats to a noxious thermal stimulus was measured using a modified tail flick test, the details of which have previously been described (Gelgor et al., 1992). The rat's tail was submerged in a water bath controlled at 49° C., and the time to the first coordinated motor response of the tail measured, with a safety cut-off at 30 s. Tail skin temperature was maintained at 29° C. by placing all but the proximal 20 mm of the rat's tail in a temperature-controlled bath, before and between measurements, to obviate the potential confounding effects of changes in tail temperature on tail flick latency (Tjolsen et al., 1989).
The hyperalgesia which occurs during reperfusion of the tail following transient ischaemia, that is following the release of the tourniquet mentioned above, was measured by comparing the tail flick latency during reperfusion with that measured in the same animal before application of the tourniquet. Hyperalgesia is manifest as a reduced tail flick latency during reperfusion, and lasts about one hour (Gelgor et al., 1992).
as §1
Codeine phosphate was dissolved in water. Meloxicam was dissolved in sunflower oil. Paracetamol was suspended in sunflower oil. All three agents were administered in boluses of 0.2 ml, and the paracetamol suspension was flushed with water. In control experiments, the appropriate vehicle (water, sunflower oil, or both) was administered.
Each agent was administered separately, at three doses, to determine the antinociceptve activity, if any, of each independently. Pairs of agents then were administered at three doses for each pair. Finally, the combination of the three agents was administered, at three doses. In all cases, the ratio of the agents was fixed at 1 meloxicam: 4 codeine: 266 paracetamol.
Antihyperalgesia is measured by the extent to which an agent reverses the hyperalgesia induced by conditioning event, which, in the test case, was transient ischaemia. An antihyperalgesic index of zero means complete lack of antihyperalgesic activity, an index of 100% means full reversal of the hyperalgesia, and an index of more than 100% implies some analgesic activity added to the antihyperalgesic activity.

[3] = oral, single agent, least-squares regression, n=9 or 10, immediately after release of tourniquet

Row | SMILES | Escape latency (min), Agent ([1]; paracetamol 266 mg/kg oral 30 min earlier) | ED50 [2, 3] | Antihyperalgesic activity of each agent administered separately, in words ([2]; oral, three doses each (FIG. 2), paracetamol limited to 266 mg/kg) | Antihyperalgesic activity of the agent on its own at its dose in the ED50 of the triple combination, in words ([2]; rat, in vivo) | Escape latency (min), Agent ([1]; meloxicam 5 mg/kg oral 30 min earlier) | Escape latency (min), Agent ([1]; codeine 20 mg/kg oral 30 min earlier) | ED50 ([2]; po)
1 | CC(=O)Nc1ccc(O)cc1 [Paracetamol, paracetamol] | 18.2 (9.2-30.0) min | > 266 mg/kg | did not exhibit any antihyperalgesic activity | no antihyperalgesic activity | – | – | –
2 | Cc1cnc(NC(=O)C2=C(O)c3ccccc3S(=O)(=O)N2C)s1 [Meloxicam, meloxicam] | – | 2.6 mg/kg | – | – | 25.3 (15.7-30.0) min | – | –
3 | COc1ccc2c3c1O[C@H]1[C@@H](O)C=C[C@H]4[C@@H](C2)N(C)CC[C@@]341 [Codeine, codeine phosphate] | – | – | – | – | – | 20.9 (11.9-30.0) min | 2.4 mg/kg

— patent US20050090517A1, “Pharmaceutical combinations of cox-2 inhibitors and opiates” (priority 2002, published 2005)
